According to ChEMBL document CHEMBL6182860, “Discovery and rational optimization of 2, 2'-((1H-indole-2,3-diyl) bis (thio))diacetamide as novel SARS-CoV-2 RdRp inhibitors” (Bioorg Med Chem, 2025):

What was measured:
[1] = target: Replicase polyprotein 1ab (Severe acute respiratory syndrome coronavirus 2) (UniProt P0DTD1); assay: Inhibition of SARS-Cov-2 RdRp expressed in HEK293T cells co-transfected with pCoV-Gluc and pCOVID-nsp12/7/8 at 10 uM incubated for 24 hrs by microplate luminometric analysis relative to control; assay type: cell-based
[2] = target: Replicase polyprotein 1ab (Severe acute respiratory syndrome coronavirus 2) (UniProt P0DTD1); assay: Inhibition of SARS-Cov-2 RdRp expressed in HEK293T cells co-transfected with pCoV-Gluc and pCOVID-nsp12/7/8 assessed as reduction in viral positive strand Gluc-RNA level incubated for 24 hrs by qRT-PCR analysis; assay type: cell-based
[3] = target: T1, Replicase polyprotein 1ab (Severe acute respiratory syndrome coronavirus 2, UniProt P0DTD1); assay: Inhibition of SARS-Cov-2 RdRp expressed in HEK293T cells co-transfected with pCoV-Gluc and pCOVID-nsp12/7/8/10/14 assessed as tolerance to proof reading activity of nsp14/10 exonuclease incubated for 24 hrs by microplate luminometric analysis; assay type: cell-based
[4] = target: Replicase polyprotein 1ab (Severe acute respiratory syndrome coronavirus 2) (UniProt P0DTD1); assay: Inhibition of SARS-Cov-2 RdRp expressed in HEK293T cells co-transfected with pCoV-Gluc and pCOVID-nsp12/7/8 at 3 uM incubated for 24 hrs by microplate luminometric analysis; assay type: cell-based
[5] = target: Replicase polyprotein 1ab (Severe acute respiratory syndrome coronavirus 2) (UniProt P0DTD1); assay: Inhibition of SARS-Cov-2 RdRp expressed in HEK293T cells co-transfected with pCoV-Gluc and pCOVID-nsp12/7/8 assessed as reduction in viral negative strand Gluc-RNA level incubated for 24 hrs by qRT-PCR analysis; assay type: cell-based
[6] = Cytotoxicity against HEK293T cells assessed as reduction in cell viability incubated for 24 hrs by CCK-8 assay; assay type: toxicity, cell-based, HEK-293T; settings: human
[7] = target: T1, Replicase polyprotein 1ab; assay: Inhibition of SARS-Cov-2 RdRp expressed in HEK293T cells co-transfected with pCoV-Gluc and pCOVID-nsp12/7/8 incubated for 24 hrs by microplate luminometric analysis; assay type: cell-based
[8] = test system: Human coronavirus NL63; assay: Antiviral activity against HCoV NL63 infected in rhesus monkey LLC-MK2 cells assessed as inhibition of viral replication pre-infected for 1 hrs followed by compound administration and measured 120 hrs post-infection by MTS assay; assay type: functional, organism-based; settings: for Activity: time 119.0 hrs
[9] = test system: Human coronavirus OC43; assay: Antiviral activity against HCoV OC43 infected in human HCT-8 cells assessed as inhibition of viral replication pre-infected for 1 hrs followed by compound administration and measured 120 hrs post-infection by MTS assay; assay type: functional, organism-based; settings: for EC50: Betacoronavirus 1, HCT-8; for Activity: time 119.0 hrs
[10] = test system: Human coronavirus OC43; assay: Antiviral activity against HCoV OC43 infected in human HCT-8 cells assessed as inhibition of viral replication by measuring maximal inhibition at 50 uM pre-infected for 1 hrs followed by compound administration and measured 120 hrs post-infection by MTS assay relative to control; assay type: functional; settings: time 119 hrs
[11] = test system: Human coronavirus NL63; assay: Antiviral activity against HCoV NL63 infected in rhesus monkey LLC-MK2 cells assessed as inhibition of viral replication by measuring maximal inhibition at 50 uM pre-infected for 1 hrs followed by compound administration and measured 120 hrs post-infection by MTS assay relative to control; assay type: functional; settings: time 119 hrs
[12] = target: Replicase polyprotein 1ab (Severe acute respiratory syndrome coronavirus 2) (UniProt P0DTD1); assay: Inhibition of SARS-Cov-2 RdRp expressed in HEK293T cells co-transfected with pCoV-Gluc and pCOVID-nsp12/7/8 at 0.5 to 2 uM incubated for 24 hrs by microplate luminometric analysis; assay type: cell-based; settings: dose 0.5-2 µM

| Structure (SMILES) | inhibition [1] [%] | CC50 at 24 h [6] [µM] | EC50 [7] [µM] | further results |
| --- | --- | --- | --- | --- |
| CCOc1ccccc1NC(=O)CSc1c(SCC(=O)NCc2cccc(C)c2)[nH]c2ccccc12 | 40.2 |  |  |  |
| Cc1cccc(CNC(=O)CSc2[nH]c3ccccc3c2SCC(=O)Nc2ccc(Cl)c(Cl)c2)c1 | 96 | 90.3 | 1.55 | inhibition [2]: Dose-dependent-effect; Inhibition Effect Were Twice As Potent As Remdesivir At 10 Um; EC50 [3]: 1.75 µM; inhibition [4]: Active; Maximum Inhibitory Effect Observed; inhibition [5]: Dose-dependent-effect; Inhibition Effect Were Twice As Potent As Remdesivir At 10 Um |
| COc1ccccc1CNC(=O)CSc1[nH]c2ccccc2c1SCC(=O)Nc1ccc(Cl)c(Cl)c1 | 95.5 | > 100 | 2 |  |
| O=C(CSc1[nH]c2ccccc2c1SCC(=O)Nc1ccc(Cl)c(Cl)c1)NCc1ccccc1Cl | 82 | > 100 | 2.33 |  |
| CCOc1ccccc1CNC(=O)CSc1[nH]c2ccccc2c1SCC(=O)Nc1ccc(Cl)c(Cl)c1 | 92 | 72.5 | 1.45 | inhibition ([2]; dose 5-10 µM, time 24.0 hrs): Dose-dependent-effect; EC50 [3]: 1.69 µM; inhibition [4]: Active; Maximum Inhibitory Effect Observed; inhibition ([5]; dose 5-10 µM, time 24.0 hrs): Dose-dependent-effect |
| CCOc1ccccc1NC(=O)CSc1c(SCC(=O)NCc2ccccc2)[nH]c2ccccc12 | 89.2 | > 100 | 2.14 |  |
| CCOc1ccccc1CNC(=O)CSc1[nH]c2ccccc2c1SCC(=O)Nc1ccccc1OCC | 39.2 |  |  |  |
| CCOc1ccccc1NC(=O)CSc1c(SCC(=O)NCc2ccc(C)cc2)[nH]c2ccccc12 | 88.3 | > 100 | 2.76 |  |
| CCOc1ccccc1NC(=O)CSc1c(SCC(=O)NCc2ccccc2C)[nH]c2ccccc12 | 77.5 | > 100 | 2.58 |  |
| CCOc1ccccc1NC(=O)CSc1c(SCC(=O)NCc2ccc(Cl)c(Cl)c2)[nH]c2ccccc12 | 84.8 | > 100 | 2.59 |  |
| O=C(CSc1[nH]c2ccccc2c1SCC(=O)Nc1ccc(Cl)c(Cl)c1)Nc1ccc(Cl)c(Cl)c1 | 88.1 | 95.5 | 2.43 |  |
| CCC(CC)COC(=O)[C@H](C)N[P@](=O)(OC[C@H]1O[C@@](C#N)(c2ccc3c(N)ncnn23)[C@H](O)[C@@H]1O)Oc1ccccc1 | 87 | > 100 |  | EC50 [8]: 3.42 µM; inhibition ([2]; dose 5-10 µM, time 24.0 hrs): Dose-dependent-effect; EC50 [9]: 1.79 µM; inhibition ([5]; dose 5-10 µM, time 24.0 hrs): Dose-dependent-effect |
| O=C(CSc1[nH]c2ccccc2c1SCC(=O)Nc1ccc(Cl)c(Cl)c1)NCc1ccccc1F | 93.6 | 78.6 | 1.44 | inhibition [2]: Dose-dependent-effect; Inhibition Effect Were Twice As Potent As Remdesivir At 10 Um; EC50 [3]: 1.8 µM; inhibition [4]: Active; Maximum Inhibitory Effect Observed; inhibition [5]: Dose-dependent-effect; Inhibition Effect Were Twice As Potent As Remdesivir At 10 Um |
| CCOc1ccccc1NC(=O)CSc1[nH]c2ccccc2c1SCC(=O)Nc1ccccc1OCC | 48.5 |  |  |  |
| CCOc1ccccc1NC(=O)CSc1c(SCC(=O)NCc2ccc(-c3ccccc3)cc2)[nH]c2ccccc12 | 39.7 |  |  |  |
| O=C(CSc1[nH]c2ccccc2c1SCC(=O)Nc1ccc(Cl)c(Cl)c1)NCc1ccc(-c2ccccc2)cc1 | 93.8 | 75.1 | 1.91 |  |
| O=C(CSc1c[nH]c2ccccc12)Nc1ccc(Cl)c(Cl)c1 | 36 |  |  |  |
| CCOc1ccccc1NC(=O)CSc1c(SCC(=O)NCc2ccccc2Cl)[nH]c2ccccc12 | 80.8 | > 100 | 2.55 |  |
| O=C(CSc1[nH]c2ccccc2c1SCC(=O)Nc1ccc(Cl)c(Cl)c1)NCc1ccc(Cl)cc1 | 96.6 | > 100 | 1.88 |  |
| CCOc1ccccc1NC(=O)CSc1c(SCC(=O)NCc2cccc(Cl)c2)[nH]c2ccccc12 | 94.8 | > 100 | 0.57 | EC50 [8]: 4.11 µM; Activity [8]: Dose-dependent-effect; inhibition ([2]; dose 5-10 µM, time 24.0 hrs): Dose-dependent-effect; EC50 [9]: 1.28 µM; Activity [9]: Dose-dependent-effect; EC50 [3]: 0.85 µM; Imax [10]: 90%; Imax [11]: 80%; inhibition ([5]; dose 5-10 µM, time 24.0 hrs): Dose-dependent-effect; inhibition [12]: Active; Better Inhibitory Effect Than Remdesivir Observed |
| CCOc1ccccc1NC(=O)CSc1c(SCC(=O)NCc2ccccc2F)[nH]c2ccccc12 | 89.5 | > 100 | 0.71 | EC50 [8]: 13.4 µM; Activity [8]: Dose-dependent-effect; inhibition ([2]; dose 5-10 µM, time 24.0 hrs): Dose-dependent-effect; EC50 [9]: 1.52 µM; Activity [9]: Dose-dependent-effect; EC50 [3]: 1.07 µM; Imax [10]: 90%; Imax [11]: 80%; inhibition ([5]; dose 5-10 µM, time 24.0 hrs): Dose-dependent-effect; inhibition [12]: Active; Better Inhibitory Effect Than Remdesivir Observed |
| Cc1ccc(CNC(=O)CSc2[nH]c3ccccc3c2SCC(=O)Nc2ccc(Cl)c(Cl)c2)cc1 | 91.9 | > 100 | 1.6 |  |
| Cc1ccccc1CNC(=O)CSc1[nH]c2ccccc2c1SCC(=O)Nc1ccc(Cl)c(Cl)c1 | 94.4 | > 100 | 2.44 |  |
| CCOc1ccccc1NC(=O)CSc1c[nH]c2ccccc12 | 4 |  |  |  |
| O=C(CSc1[nH]c2ccccc2c1SCC(=O)Nc1ccc(Cl)c(Cl)c1)NCc1ccc(Cl)c(Cl)c1 | 89.1 | > 100 | 2.02 |  |
| O=C(CSc1[nH]c2ccccc2c1SCC(=O)Nc1ccc(Cl)c(Cl)c1)NCc1cccc(Cl)c1 | 85.1 | > 100 | 2.14 |  |
| CCOc1ccccc1NC(=O)CSc1c(SCC(=O)NCc2ccccc2OC)[nH]c2ccccc12 | 73.8 | > 100 | 2.36 |  |
| O=C(CSc1[nH]c2ccccc2c1SCC(=O)Nc1ccc(Cl)c(Cl)c1)NCc1ccccc1 | 97 | 87.1 | 3.13 |  |
| CCOc1ccccc1NC(=O)CSc1c(SCC(=O)NCc2ccc(Cl)cc2)[nH]c2ccccc12 | 95.4 | > 100 | 1.77 |  |
